Consider 28 molecules from patent US20250101052A1, “COMPOUND FOR EGFR KINASE INHIBITOR, COMPOSITION, AND USE THEREOF” (INNOVATION INSTITUTE FOR ARTIFICIAL INTELLIGENCE IN …, priority 2021, published 2025).

The target in this assay is EGFR^L858R/T790M/C797S kinase (Homo sapiens (Human), UniProt P00533, C797S/L858R/T790M). Description: EGFR^L858R/T790M/C797S kinase inhibitory activity experiment. In kind it is biochemical. Particulars: in vitro. The protocol: EGFRL^858R/T790M/C797S kinase inhibitory activity experiment: The compounds of the present invention have excellent in-vitro inhibitory activity against EGFR^L858R/T790M/C797S kinase
Sequence of EGFR^L858R/T790M/C797S kinase (P00533 25-1210 T790M/C797S/L858R): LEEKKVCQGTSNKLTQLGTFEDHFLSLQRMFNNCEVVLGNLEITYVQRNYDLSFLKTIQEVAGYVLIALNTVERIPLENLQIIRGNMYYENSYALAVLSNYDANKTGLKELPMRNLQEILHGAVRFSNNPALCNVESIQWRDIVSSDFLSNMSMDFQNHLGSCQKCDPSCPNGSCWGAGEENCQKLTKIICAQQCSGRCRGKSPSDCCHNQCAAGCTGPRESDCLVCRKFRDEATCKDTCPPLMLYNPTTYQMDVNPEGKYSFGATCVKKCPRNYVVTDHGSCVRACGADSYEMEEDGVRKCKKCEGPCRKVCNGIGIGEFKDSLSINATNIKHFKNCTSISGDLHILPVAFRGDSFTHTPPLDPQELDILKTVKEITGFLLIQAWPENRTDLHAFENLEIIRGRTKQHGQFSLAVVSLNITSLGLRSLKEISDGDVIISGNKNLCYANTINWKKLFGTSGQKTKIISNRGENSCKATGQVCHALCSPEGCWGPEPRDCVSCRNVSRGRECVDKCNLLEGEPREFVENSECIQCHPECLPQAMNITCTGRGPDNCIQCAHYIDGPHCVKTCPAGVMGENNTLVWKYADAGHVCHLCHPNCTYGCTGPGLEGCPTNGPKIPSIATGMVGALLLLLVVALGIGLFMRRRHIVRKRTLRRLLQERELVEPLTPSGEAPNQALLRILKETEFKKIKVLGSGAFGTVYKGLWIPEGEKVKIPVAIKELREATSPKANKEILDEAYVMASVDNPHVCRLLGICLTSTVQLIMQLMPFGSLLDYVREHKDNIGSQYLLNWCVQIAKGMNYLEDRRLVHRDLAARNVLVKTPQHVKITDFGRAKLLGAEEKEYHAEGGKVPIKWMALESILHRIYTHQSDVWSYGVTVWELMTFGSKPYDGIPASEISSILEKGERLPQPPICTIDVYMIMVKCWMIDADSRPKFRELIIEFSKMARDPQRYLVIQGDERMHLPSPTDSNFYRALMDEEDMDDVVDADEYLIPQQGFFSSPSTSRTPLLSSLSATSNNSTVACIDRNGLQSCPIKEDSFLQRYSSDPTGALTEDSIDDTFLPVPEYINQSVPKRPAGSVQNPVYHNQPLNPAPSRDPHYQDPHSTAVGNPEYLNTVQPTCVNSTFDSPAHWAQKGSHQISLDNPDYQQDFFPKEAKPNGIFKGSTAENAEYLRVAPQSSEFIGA
• Centrifuge (manufacturer: Eppendorf, model: 5430) • Microplate reader (manufacturer: Perkin Elmer, model: Caliper EZ ReaderII) • Echo 550 (manufacturer: Labcyte, model: Echo 550) • Experimental Method • Compound preparation: • A 10 mM storage solution was prepared.
(1) 1×Kinase buffer was prepared.
(2) Preparation of concentration gradient of compound: The tested compound has a test concentration starting from 1 μM, diluted 10 times, with 10 concentrations, and subjected to single-well or multi-well detection. The compound was diluted to a 100% DMSO solution with a final concentration of 100 times in a 384 source plate. […] of the compound at a final concentration of 100 times was transferred to the target plate 384-well-plate using the pipette Echo 550.
(3) A kinase solution with a final concentration of 2.5 times was prepared using 1× Kinase buffer.
(4) 10 μL of the kinase solution with the final concentration of 2.5 times was added to a compound well and a positive control well, respectively; 10 μL of 1×Kinase buffer was added to a negative control well.
(5) Centrifugation was conducted at 1000 rpm for 30 seconds, and the reaction plate was shaken and mixed well, and incubated at a room temperature for 10 minutes.
(6) A mixed solution of ATP with a final concentration of 5/3 times and Kinase substrate 22 was prepared using 1×Kinase buffer.
(7) A mixed solution of 15 μL of ATP with a final concentration of 5/3 times and a substrate was added for initial reaction.
(8) The 384-well-plate was centrifuged at 1000 rpm for 30 seconds, shaken and mixed well, and incubated at a room temperature for 60 minutes.
(9) 30 μL of a termination detection solution was added to stop the kinase reaction. Centrifugation was conducted at 1000 rpm for 30 seconds. Shaking and mixing well were conducted.
(10) The conversion rate was read using Caliper EZ Reader.
where Conversion %_sample is the conversion rate reading of the sample; Conversion %_min: the average value of negative control wells, representing the conversion rate reading of wells without enzyme activity; Conversion %_max: the average value of positive control wells, representing the conversion rate reading of wells without compound inhibition; % Inhibition represents the inhibition rate.
Fitting of Dose-Response Curve
Using the log value of concentration as the X-axis and the percentage inhibition rate as the Y-axis, the dose-response curve was fitted using the log(inhibitor) vs. response —Variable slope of the analysis software GraphPad Prism 5 to obtain the IC50 value of each compound on enzyme activity.
As usually defined, the IC50 is the concentration at which inhibition is half-maximal. The low end stands for inhibition by little substance, the high end for a need for much substance. With `COc1cc(N2CCC(N3CCN(C)CC3)CC2)c(C)cc1Nc1ncc(Cl)c(Nc2ccc(C)c(C)c2P(C)(C)=O)n1` [BD-2, (6-((5-Chloro-2-((2-methoxy-5-methyl-4-(4-(4-methylpiperazin-1-yl)piperidin-1-yl)phenyl)amino)pyrimidin-4-yl)amino)-2,3-dimethylphenyl)dimethylphosphine oxide], the 50% inhibitory concentration (IC50) was 5 nM.

In turn, `COc1cc(N2CCC3(CC2)CC(N(C)C)C3)ccc1Nc1ncc(Cl)c(Nc2cc(C)c(C)cc2P(C)(C)=O)n1` [Compound 1, (6-((5-Chloro-2-((4-(2-(dimethylamino)-7-azaspiro[3.5]nonan-7-yl)-2-methoxyphenyl)amino)pyrimidin-4-yl)amino)-3,4-dimethylphenyl)dimethylphosphine oxide] gave an IC50 of 27 nM.

`COc1cc(N2CC3(CCC(N(C)C)CC3)C2)ccc1Nc1ncc(Cl)c(Nc2ccc(C)c(C)c2P(C)(C)=O)n1` [Compound 2, (6-((5-Chloro-2-((4-(7-(dimethylamino)-2-azaspiro[3.5]nonane-2-yl)-2-methoxyphenyl)amino)pyrimidin-4-yl)amino)-2,3-dimethylphenyl)dimethylphosphine oxide] returned an IC50 of 89 nM.

`COc1cc(N2CC3(CCC(N(C)C)CC3)C2)c(C)cc1Nc1ncc(Cl)c(Nc2ccc(C)c(C)c2P(C)(C)=O)n1` [Compound 3, (6-((5-Chloro-2-((4-(7-(dimethylamino)-2-azaspiro[3.5]nonan-2-yl)-2-methoxy-5-methylphenyl)amino)pyrimidin-4-yl)amino)-2,3-dimethylphenyl)dimethylphosphine oxide] gave an IC50 of 21 nM.

`COc1cc(N2CCC3(CCN(C)CC3)CC2)ccc1Nc1ncc(Cl)c(Nc2ccc(C)c(C)c2P(C)(C)=O)n1` [Compound 4, (6-((5-Chloro-2-((2-methoxy-4-(9-methyl-3,9-diazaspiro[5.5]undecan-3-yl)phenyl)amino)pyrimidin-4-yl)amino)-2,3-dimethylphenyl)dimethylphosphine oxide]: the IC50 is 16 nM.

`COc1cc(N2CCC3(CC2)CC(N(C)C)C3)c(C)cc1Nc1ncc(Cl)c(Nc2cc(C)c(C)cc2P(C)(C)=O)n1` [Compound 9, (2-((5-Chloro-2-((4-(2-(dimethylamino)-7-azaspiro[3.5]nonan-7-yl)-2-methoxy-5-methylphenyl)amino)pyrimidin-4-yl)amino)-4,5-dimethylphenyl)dimethylphosphine oxide] showed an IC50 of 7 nM.

Molecule `CCc1cc(Nc2ncc(Cl)c(Nc3cc(C)c(C)cc3P(C)(C)=O)n2)c(OC)cc1N1CC2(CCC(N(C)C)CC2)C1` [Compound 10, (2-((5-Chloro-2-((4-(7-(dimethylamino)-2-azaspiro[3.5]nonan-2-yl)-5-ethyl-2-methoxypheny 1)amino)pyrimidin-4-yl)amino)-4,5-dimethylphenyl)dimethylphosphine oxide] displayed an IC50 of 13 nM.

On to `CCc1cc(Nc2ncc(Cl)c(Nc3cc(C)c(C)cc3P(C)(C)=O)n2)c(OC)cc1N1CCC(N2CCN(C)CC2)CC1` [Compound 11, (2-((5-chloro-2-((5-ethyl-2-methoxy-4-(4-(4-methylpiperazin-1-yl)piperidin-1-yl)phenyl)amino)pyrimidin-4-yl)amino)-4,5-dimethylphenyl)dimethylphosphine oxide], for which inhibition was half-maximal at 5 nM (IC50).

In turn, `CCc1cc(Nc2ncc(Cl)c(Nc3cc(C)c(C)cc3P(C)(C)=O)n2)c(OC)cc1N1CCC(N2CCOCC2)CC1` [Compound 14, (2-((5-chloro-2-((5-ethyl-2-methoxy-4-(4-morpholinopiperidin-1-yl)phenyl)amino)pyrimidin-4-yl)amino)-4,5-dimethylphenyl)dimethylphosphine oxide] showed an IC50 of 8.3 nM.

`CCc1cc(Nc2ncc(Cl)c(Nc3cc(C)c(C)cc3P(C)(C)=O)n2)c(OC)cc1N1CCC(N2CC(N(C)C)C2)CC1` [Compound 15, (2-((5-chloro-2-((4-(4-(3-(dimethylamino)azetidin-1-yl)piperidine-1-yl)-5-ethyl-2-methoxyphenyl)amino)pyrimidin-4-yl)amino)-4,5-dimethylphenyl)dimethylphosphine oxide] had an IC50 of 3.8 nM.

On to `CCc1cc(Nc2ncc(Cl)c(Nc3cc(C)cc(C)c3P(C)(C)=O)n2)c(OC)cc1N1CCC2(CC1)CC(N(C)C)C2` [Compound 18, (2-((5-Chloro-2-((4-(2-(dimethylamino)-7-azaspiro[3.5]non-7-yl)-5-ethyl-2-methoxyphenyl)amino)pyrimidin-4-yl)amino)-4,6-dimethylphenyl)dimethylphosphine oxide], for which the IC50 turned out to be 36 nM.

For `CCc1cc(Nc2ncc(Cl)c(Nc3cc(C)c(C)cc3P(C)(C)=O)n2)c(OC)cc1N1CCC2(CC1)CN(C)C2` [Compound 20, (2-((5-Chloro-2-((5-ethyl-2-methoxy-4-(2-methyl-2,7-diazaspiro[3.5]non-7-yl)phenyl)amino)pyrimidin-4-yl)amino)-4,5-dimethylphenyl)dimethylphosphine oxide], the IC50 worked out at 29 nM.

As to `COc1cc(N2CCC3(CC2)CC(N(C)C)C3)c(F)cc1Nc1ncc(Cl)c(Nc2ccc(C)c(C)c2P(C)(C)=O)n1` [Compound 22], it took 10 nM to reach half-maximal inhibition (IC50).

Consider `CCc1cc(Nc2ncc(Cl)c(Nc3ccc(C)c(C)c3P(C)(C)=O)n2)c(OC)cc1N1CC2(CCN(CC3CC3)CC2)C1` [Compound 26], for which the IC50 came to 0.74 nM.

`CCc1cc(Nc2ncc(Cl)c(Nc3ccc(C)c(C)c3P(C)(C)=O)n2)c(OC)cc1N1CC2(CCN(CC)CC2)C1` [Compound 27]: inhibition was half-maximal at 0.81 nM (IC50).

With `CCc1cc(Nc2ncc(Cl)c(Nc3ccc(C)c(C)c3P(C)(C)=O)n2)c(OC)cc1N1CC2(CCN(CC(F)F)CC2)C1` [Compound 28], inhibition was half-maximal at 0.99 nM (IC50).

Consider `CCc1cc(Nc2ncc(Cl)c(Nc3ccc(C)c(C)c3P(C)(C)=O)n2)c(OC)cc1N1CC2(CCC(CC#N)CC2)C1` [Compound 29, 2-(2-(4-((5-chloro-4-((2-(dimethylphosphoryl)-3,4-dimethylphenyl)amino)pyrimidin-2-yl)amino)-2-ethyl-5-methoxyphenyl)-2-azaspiro[3.5]nonane-7-yl)acetonitrile], for which the IC50 came to 18.1 nM.

`CCc1cc(Nc2ncc(Cl)c(Nc3ccc(C)c(C)c3P(C)(C)=O)n2)c(OC)cc1N1CCC2(CC1)CN(C(C)=O)C2` [Compound 30, 1-(7-(4-((5-chloro-4-((2-(dimethylphosphoryl)-3,4-dimethylphenyl)amino)pyrimidin-2-yl)amino)-2-ethyl-5-methoxyphenyl)-2,7-diazaspiro[3.5]nonan-2-yl)ethan-1-one] displayed an IC50 of 6.78 nM.

As to `CCc1cc(Nc2ncc(Cl)c(Nc3ccc(C)c(C)c3P(C)(C)=O)n2)c(OC)cc1N1CCC2(CC1)CN(COC)C2` [Compound 31], the IC50 came out at 4.19 nM.

The molecule `CCN1CCC2(CC1)CN(c1cc(OC)c(Nc3ncc(Cl)c(Nc4ccc(C)c(C)c4P(C)(C)=O)n3)cc1C)C2` [Compound 33] showed an IC50 of 0.73 nM.

Molecule `COc1cc(N2CC3(CCN(C)CC3)C2)c(Cl)cc1Nc1ncc(Cl)c(Nc2ccc(C)c(C)c2P(C)(C)=O)n1` [Compound 34] returned an IC50 of 0.84 nM.

In turn, `CCN1CCC2(CC1)CN(c1cc(OC)c(Nc3ncc(Cl)c(Nc4ccc(C)c(C)c4P(C)(C)=O)n3)cc1Cl)C2` [Compound 35] returned an IC50 of 0.68 nM.

In turn, `CCc1cc(Nc2ncc(Cl)c(Nc3cc(Cl)c(Cl)cc3P(C)(C)=O)n2)c(OC)cc1N1CC2(CCN(C)CC2)C1` [Compound 36] yielded an IC50 of 0.96 nM.

`CCc1cc(Nc2ncc(Cl)c(Nc3cc(Cl)c(Cl)cc3P(C)(C)=O)n2)c(OC)cc1N1CC2(CCN(C3CC3)CC2)C1` [Compound 37] registered an IC50 of 0.49 nM.

As to `CCc1cc(Nc2ncc(Cl)c(Nc3cc(Cl)c(Cl)cc3P(C)(C)=O)n2)c(OC)cc1N1CC2(CCN(CC(F)F)CC2)C1` [Compound 38], inhibition was half-maximal at 0.59 nM (IC50).

The molecule `CCc1cc(Nc2ncc(Cl)c(Nc3cc(Cl)c(Cl)cc3P(C)(C)=O)n2)c(OC)cc1N1CC2(CCC(CC#N)CC2)C1` [Compound 39, 2-(2-(4-((5-chloro-4-((4,5-dichloro-2-(dimethylphosphoryl)phenyl)amino)pyrimidin-2-yl)amino)-2-ethyl-5-methoxyphenyl)-2-azaspiro[3.5]nonan-7-yl)acetonitrile] registered an IC50 of 12.1 nM.

`COc1cc(N2CC3(CCN(C)CC3)C2)c(Cl)cc1Nc1ncc(Cl)c(Nc2cc(C)c(C)cc2P(C)(C)=O)n1` [Compound 40] yielded an IC50 of 0.85 nM.

`COc1cc(N2CC3(CCN(C4CC4)CC3)C2)c(Cl)cc1Nc1ncc(Cl)c(Nc2cc(C)c(C)cc2P(C)(C)=O)n1` [Compound 41] showed an IC50 of 0.89 nM.
